In patent publication US20090197859A1 (Pfizer Inc., priority 2008, published 2009):

Target: T1, cloned human 5-HT6 receptor (Homo sapiens, UniProt P50406)
T1 construct: host or cells: HeLa cells, G-418 selection, membrane preparation
Experiment: 5-HT6 Receptor Binding Assay ([3H]-LSD radioligand, SPA)
Details: read-out: 5HT6 % inh @ 1 uM
Protocol: 5-HT6 Receptor Binding Assay
Hela cells containing the cloned human 5-HT6 receptor were acquired from Dr. David R. Sibley's laboratory in National Institute of Health (see Sibley, D. R., J. Neurochemistry, 66, 47-56, 1996). Cells were grown in high glucose Dulbecco's modified Eagle's medium, supplemented with L-glutamine, 0.5% sodium pyruvate, 0.3% penicillin-streptomycin, 0.025% G-418 and 5% Gibco fetal bovine serum and then were harvested, when confluent, in cold phosphate buffered saline.
Harvested intact cells were washed once in cold phosphate-buffered saline. The cells were pelleted and resuspended in 100 ml of cold 50 mM Tris, 5 mM EDTA and 5 mM EGTA, pH 7.4. Homogenization was with a Vir Tishear generator, 4 cycles for 30 seconds each at setting 50. The homogenized cells were centrifuged at […] for 10 minutes and the supernatant was removed. The pellet was resuspended in 100 ml of the above buffer and rehomogenized for 2 cycles. The rehomogenized cells were then centrifuged at […] for 10 minutes and the supernatant was removed. The combined supernatant (200 ml) was centrifuged at 23,000 RPM (80,000×g) for 1 hour in a Beckman Rotor (42.1 Ti). The membrane pellet was resuspended in […] of assay buffer containing HEPES 20 mM, MgCl2 10 mM, NaCl 150 mM, EDTA 1 mM, pH 7.4 and stored frozen in aliqouts at −70° C.
The radioligand binding assay used [^3H]-lysergic acid diethylamide (LSD). The assay was carried out in Wallac 96-well sample plates by the addition of 11 μl of the test sample at the appropriate dilution (the assay employed 11 serial concentrations of samples run in duplicate), 11 μl of radioligand, and 178 μl of a washed mixture of WGA-coated SPA beads and membranes in binding buffer. The plates were shaken for about 5 minutes and then incubated at room temperature for 1 hour. The plates were then loaded into counting cassettes and counted in a Wallac MicroBeta Trilux scintillation counter.
Binding Constant Determination may be obtained by performing serial dilutions, e.g., eleven dilutions, of test compounds into assay plates using the PE/Cetus Pro/Pette pipetter. These dilutions are followed by radioligand and the bead-membrane mixture prepared as described above. After obtaining the specifically bound cpm, the data are fit to a one-site binding model using GraphPad Prism ver. 2.0. Estimated IC50 values are converted to Ki values using the Cheng-Prusoff equation (Cheng, Y. C. et al., Biochem. Pharmacol., 22, 3099-108, 1973).

T1 sequence (P50406 whole entry): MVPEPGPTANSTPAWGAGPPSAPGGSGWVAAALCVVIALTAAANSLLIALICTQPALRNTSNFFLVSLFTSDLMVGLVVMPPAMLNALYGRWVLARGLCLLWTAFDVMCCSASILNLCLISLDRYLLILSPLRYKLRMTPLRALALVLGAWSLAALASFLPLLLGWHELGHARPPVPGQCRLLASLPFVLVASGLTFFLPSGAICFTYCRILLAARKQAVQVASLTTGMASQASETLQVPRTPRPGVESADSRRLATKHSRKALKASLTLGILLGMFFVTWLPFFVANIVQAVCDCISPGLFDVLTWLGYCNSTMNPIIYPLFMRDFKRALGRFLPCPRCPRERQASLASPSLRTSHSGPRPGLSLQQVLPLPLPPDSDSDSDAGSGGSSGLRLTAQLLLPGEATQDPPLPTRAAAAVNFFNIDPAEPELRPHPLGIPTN

inhibition at 1 µM [%] | SMILES
98.8 | O=C(c1cccc(N2CCCNCC2)n1)N1CC[C@H](Oc2ccccc2F)C1 [Example 30, (6-[1,4]Diazepan-1-yl-pyridin-2-yl)-[(S)-3-(2-fluoro-phenoxy)-pyrrolidin-1-yl]-methanone]
97.8 | CN1CCN(c2cccc(C(=O)N3CCC(Oc4ccc(F)cc4F)CC3)n2)CC1 [Example 109, [4-(2,4-Difluoro-phenoxy)-piperidin-1-yl]-[6-(4-methyl-piperazin-1-yl)-pyridin-2-yl]-methanone]
97.8 | CN1CCN(c2cccc(C(=O)N3CC=C(c4ccccc4F)CC3)n2)CC1 [Example 21, [4-(2-Fluoro-phenyl)-3,6-dihydro-2H-pyridin-1-yl]-[6-(4-methyl-piperazin-1-yl)-pyridin-2-yl]-methanone]
98.3 | Cc1cccc(F)c1C1CCN(C(=O)c2cccc(N3CCN(C)CC3)n2)CC1 [Example 23, [4-(2-Fluoro-6-methyl-phenyl)-piperidin-1-yl]-[6-(4-methyl-piperazin-1-yl)-pyridin-2-yl]-methanone]
85 | CN1CCCN(c2cccc(C(=O)N3CC[C@@H](Oc4ccccc4F)C3)n2)CC1 [Example 46, [(R)-3-(2-Fluoro-phenoxy)-pyrrolidin-1-yl]-[6-(4-methyl-[1,4]diazepan-1-yl)-pyridin-2-yl]-methanone]
101 | CN1CCN(c2cccc(C(=O)N3CCC(Cc4ccccc4F)CC3)n2)CC1 [Example 115, [4-(2-Fluoro-benzyl)-piperidin-1-yl]-[6-(4-methyl-piperazin-1-yl)-pyridin-2-yl]-methanone]
93.6 | Cc1cccc([C@H]2CCCCN2C(=O)c2cccc(N3CCCN(C)CC3)n2)c1 [Example 81]
97.2 | CN1CCN(c2cccc(C(=O)N3CCC(F)(c4ccccc4F)CC3)n2)CC1 [Example 107, [4-Fluoro-4-(2-fluoro-phenyl)-piperidin-1-yl]-[6-(4-methyl-piperazin-1-yl)-pyridin-2-yl]-methanone]
96.8 | O=C(c1cccc(N2CCNCC2)n1)N1CCC(c2ccccc2F)CC1 [Example 22, [4-(2-Fluoro-phenyl)-piperidin-1-yl]-(6-piperazin-1-yl-pyridin-2-yl)-methanone]
98.2 | Cc1cccc(F)c1C1CCN(C(=O)c2cccc(C3=CCNC3)n2)CC1 [Example 110, [6-(2,5-Dihydro-1H-pyrrol-3-yl)-pyridin-2-yl]-[4-(2-fluoro-6-methyl-phenyl)-piperidin-1-yl]-methanone]
73.8 | Cc1ccc([C@@H](C)N(C)C(=O)c2cccc(N3CCN(C)CC3)n2)cc1 [Example 60, 6-(4-Methyl-piperazin-1-yl)-pyridine-2-carboxylic acid methyl-((R)-1-p-tolyl-ethyl)-amide]
78 | CN1CCN(c2cccc(C(=O)N3CC(c4cccc(F)c4)C3)n2)CC1 [Example 84, [3-(3-Fluoro-phenyl)-azetidin-1-yl]-[6-(4-methyl-piperazin-1-yl)-pyridin-2-yl]-methanone]
84.8 | Cc1cccc(C2CN(C(=O)c3cccc(N4CCN(C)CC4)n3)C2)c1 [Example 91, [6-(4-Methyl-piperazin-1-yl)-pyridin-2-yl]-(3-m-tolyl-azetidin-1-yl)-methanone]
97.8 | CN1CCC(c2cccc(C(=O)N3CCC(Oc4ccccc4F)CC3)n2)C1 (stereo not shown) [Example 113, [4-(2-Fluoro-phenoxy)-piperidin-1-yl]-[6-(1-methyl-pyrrolidin-3-yl)-pyridin-2-yl]-methanone]
98.5 | CN1CCN(c2cccc(C(=O)N3CCCC(c4ccccc4F)CC3)n2)CC1 (stereo not shown) [Example 116, [4-(2-Fluoro-phenyl)-azepan-1-yl]-[6-(4-methyl-piperazin-1-yl)-pyridin-2-yl]-methanone]
84 | Cc1ccccc1OC1CCN(C(=O)c2cccc(C3CCN(C)CC3)n2)CC1 [Example 95, (1′-Methyl-1′,2′,3′,4′,5′,6′-hexahydro-[2,4′]bipyridinyl-6-yl)-(4-o-tolyloxy-piperidin-1-yl)-methanone]
95.9 | Cc1ccccc1O[C@@H]1CCN(C(=O)c2cccc(N3CCCN(C)CC3)n2)C1 [Example 53, [6-(4-Methyl-[1,4]diazepan-1-yl)-pyridin-2-yl]-((R)-3-o-tolyloxy-pyrrolidin-1-yl)-methanone]
91.3 | Cc1ccccc1C1CN(C(=O)c2cccc(N3CCN(C)CC3)n2)C1 [Example 82, [6-(4-Methyl-piperazin-1-yl)-pyridin-2-yl]-(3-o-tolyl-azetidin-1-yl)-methanone]
84.4 | CN1CCN(c2cccc(C(=O)N3CC(c4ccccc4F)C3)n2)CC1 [Example 83, [3-(2-Fluoro-phenyl)-azetidin-1-yl]-[6-(4-methyl-piperazin-1-yl)-pyridin-2-yl]-methanone]
78.4 | CN1CCC(c2cccc(C(=O)N3CCC(Oc4ccccc4F)CC3)n2)CC1 [Example 99, [4-(2-Fluoro-phenoxy)-piperidin-1-yl]-(1′-methyl-1′,2′,3′,4′,5′,6′-hexahydro-[2,4′]bipyridinyl-6-yl)-methanone]
64.5 | Cc1ccccc1C1CCN(C(=O)c2cccc(N3CCN(C4CC4)CC3)n2)CC1 [Example 114, [6-(4-Cyclopropyl-piperazin-1-yl)-pyridin-2-yl]-(4-o-tolyl-piperidin-1-yl)-methanone]
90.6 | O=C(c1cccc(N2CCCNCC2)n1)N1CCC[C@@H](Oc2ccccc2F)C1 [Example 47, (6-[1,4]Diazepan-1-yl-pyridin-2-yl)-[(R)-3-(2-fluoro-phenoxy)-piperidin-1-yl]-methanone]
93.2 | CN1CCC(c2cccc(C(=O)N3CCC(Oc4cccc(F)c4)CC3)n2)C1 (stereo not shown) [Example 16, [4-(3-Fluoro-phenoxy)-piperidin-1-yl]-[6-(1-methyl-pyrrolidin-3-yl)-pyridin-2-yl]-methanone]
97 | O=S(=O)(c1cccc(N2CCNCC2)n1)N1CCC(c2ccccc2F)CC1 [Example 51, 1-{6-[4-(2-Fluoro-phenyl)-piperidine-1-sulfonyl]-pyridin-2-yl}-piperazine]
98.5 | Cc1ccccc1C1CCN(S(=O)(=O)c2cccc(N3CCN(C)CC3)n2)CC1 [Example 78, 1-Methyl-4-[6-(4-o-tolyl-piperidine-1-sulfonyl)-pyridin-2-yl]-piperazine]

SMILES | inhibition at 1 µM [%]
CN1CC=C(c2cccc(C(=O)N3CCC(Oc4ccccc4Cl)CC3)n2)CC1 [Example 100, [4-(2-Chloro-phenoxy)-piperidin-1-yl]-(1′-methyl-1′,2′,3′,6′-tetrahydro-[2,4′]bipyridinyl-6-yl)-methanone] | 102
CN1CC=C(c2cccc(C(=O)N3CCC(Oc4ccccc4F)CC3)n2)CC1 [Example 18, [4-(2-Fluoro-phenoxy)-piperidin-1-yl]-[1′-methyl-1′,2′,3′,6′-tetrahydro-[2,4′]bipyridinyl-6-yl)-methanone] | 95.3
CN1CC=C(c2cccc(C(=O)N3CCC(Oc4ccccc4C(F)(F)F)CC3)n2)CC1 [Example 101, (1′-Methyl-1′,2′,3′,6′-tetrahydro-[2,4′]bipyridinyl-6-yl)-[4-(2-trifluoromethyl-phenoxy)-piperidin-1-yl]-methanone] | 96.9
